Values after ≈ are worked out from the molar mass of the structure shown.
Columns and labels:
HT-29 [1] = experiment: Antiproliferative activity against ATM-proficient human HT-29 cells assessed as reduction in cell viability incubated for 3 days in presence of AZD-1390 by MTT assay; format: functional, cell-based; settings: HT-29, 72 h
[2] = target: Serine/threonine-protein kinase mTOR (Homo sapiens, UniProt P42345); experiment: Inhibition of mTOR (unknown origin) using peptide as substrate preincubated for 10 mins followed by substrate addition by microplate reader analysis
A549 [3] = experiment: Antiproliferative activity against ATM-proficient human A549 cells assessed as reduction in cell viability incubated for 3 days by MTT assay; format: functional, cell-based; settings: A549, 72 h
[4] = Aqueous solubility of compound at pH 2.0 by HPLC-MS/MS analysis; format: physicochemical; settings: aqueous medium
HT-29 [5] = experiment: Antiproliferative activity against ATM-proficient human HT-29 cells assessed as reduction in cell proliferation incubated for 3 days by MTT assay; format: functional, cell-based; settings: HT-29, 72 h
[6] = Protein binding in human plasma at 1 uM incubated for 6 hrs by dialysis based LC-MS/MS analysis; format: ADME, cell-free; settings: read-out: PPB (converted)
HCT-116 [7] = experiment: Synergistic antiproliferative activity against ATM-proficient human HCT-116 cells assessed as reduction in cell viability incubated for 3 days in presence of oxaliplatin by MTT assay; format: functional, cell-based; settings: HCT-116, 72 h
Cytochrome P450 1A2 = target: T1, Cytochrome P450 1A2 (Homo sapiens, UniProt P05177); experiment: Inhibition of CYP1A2 in human liver microsomes using […] as substrate preincubated for 5 mins followed by NADPH addition and measured after 120 mins by LC-MS/MS analysis; format: ADME, Microsome
T1 sequence (P05177 whole entry): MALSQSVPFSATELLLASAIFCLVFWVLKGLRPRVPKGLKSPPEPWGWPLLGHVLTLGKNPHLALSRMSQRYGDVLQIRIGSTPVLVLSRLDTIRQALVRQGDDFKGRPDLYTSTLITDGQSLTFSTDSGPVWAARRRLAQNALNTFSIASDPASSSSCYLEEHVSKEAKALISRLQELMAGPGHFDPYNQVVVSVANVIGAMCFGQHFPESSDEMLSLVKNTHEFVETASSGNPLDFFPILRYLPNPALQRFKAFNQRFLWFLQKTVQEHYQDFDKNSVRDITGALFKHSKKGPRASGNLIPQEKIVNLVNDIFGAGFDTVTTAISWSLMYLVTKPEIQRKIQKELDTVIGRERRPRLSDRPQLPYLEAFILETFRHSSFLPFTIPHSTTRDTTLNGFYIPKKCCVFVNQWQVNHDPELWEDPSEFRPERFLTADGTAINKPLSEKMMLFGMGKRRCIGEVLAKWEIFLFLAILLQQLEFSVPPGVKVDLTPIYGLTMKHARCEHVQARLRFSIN

A549 [8] = experiment: Synergistic antiproliferative activity against ATM-proficient human A549 cells assessed as reduction in cell viability incubated for 3 days in presence of oxaliplatin by MTT assay; format: functional, cell-based; settings: A549, 72 h
SW-620 = experiment: Antiproliferative activity against ATM-deficient human SW620 cells assessed as reduction in cell viability incubated for 3 days by MTT assay; format: functional, cell-based; settings: SW-620, 72 h
MCF7 [9] = experiment: Synergistic antiproliferative activity against human MCF7 cells assessed as reduction in cell viability incubated for 3 days in presence of olaparib by MTT assay; format: functional, cell-based; settings: MCF7, 72 h
[10] = MRT (0 to infinity) in Sprague-Dawley rat at 5 mg/kg, po and measured upto 24 hrs by LC-MS analysis; format: ADME, organism-based; settings: in vivo
MDA-MB-231 = experiment: Antiproliferative activity against human MDA-MB-231 cells assessed as reduction in cell viability incubated for 3 days by MTT assay; format: functional, cell-based; settings: MDA-MB-231, 72 h
MCF7 [11] = experiment: Antiproliferative activity against human MCF7 cells assessed as reduction in cell viability incubated for 3 days by MTT assay; format: functional, cell-based; settings: MCF7, 72 h
LoVo [12] = experiment: Inhibition of colony formation of ATM-deficient human LoVo cells at 0.03 to 3 uM incubated for 2 weeks by crystal violet staining based assay; format: functional, cell-based; settings: dose 0.03-3 µM
[13] = target: Serine-protein kinase ATM (Homo sapiens, UniProt Q13315); experiment: Inhibition of ATM (unknown origin) using peptide as substrate preincubated for 10 mins followed by substrate addition by microplate reader analysis
[14] = Volume of distribution at steady state in Sprague-Dawley rat at 1 mg/kg, iv and measured upto 24 hrs by LC-MS analysis; format: ADME, organism-based; settings: in vivo, read-out: Vdss
in vitro [15] = settings: human, liver microsomes
LoVo [16] = experiment: Antiproliferative activity against ATM-deficient human LoVo cells assessed as reduction in cell proliferation incubated for 3 days by MTT assay; format: functional, cell-based; settings: 72 h
Cytochrome P450 2C19 = Cytochrome P450 2C19 (Homo sapiens, UniProt P33261); experiment: Inhibition of CYP2C19 in human liver microsomes using […] as substrate preincubated for 5 mins followed by NADPH addition and measured after 120 mins by LC-MS/MS analysis; format: ADME, Microsome
[17] = AUCt in Sprague-Dawley rat at 1 mg/kg, iv and measured upto 24 hrs by LC-MS analysis; format: ADME, organism-based; design: dose 1 mg/kg, time < 24 hrs, route iv; settings: in vivo
[18] = target: Serine/threonine-protein kinase ATR (Homo sapiens, UniProt Q13535); experiment: Inhibition of ATR (unknown origin) using peptide as substrate preincubated for 10 mins followed by substrate addition by microplate reader analysis
[19] = Tmax in Sprague-Dawley rat at 5 mg/kg, po and measured upto 24 hrs by LC-MS analysis; format: ADME, organism-based; settings: in vivo
A549 [20] = experiment: Synergistic antiproliferative activity against ATM-proficient human A549 cells assessed as reduction in cell viability incubated for 3 days in presence of cisplatin by MTT assay; format: functional, cell-based; settings: A549, 72 h
[21] = Clearance in Sprague-Dawley rat at 1 mg/kg, iv and measured upto 24 hrs by LC-MS analysis; format: ADME, organism-based; settings: in vivo
[22] = MRT(t) in Sprague-Dawley rat at 5 mg/kg, po and measured upto 24 hrs by LC-MS analysis; format: ADME, organism-based; settings: in vivo
[23] = target: Phosphatidylinositol 4,5-bisphosphate 3-kinase catalytic subunit alpha isoform (Homo sapiens, UniProt P42336); experiment: Inhibition of PI3Kalpha (unknown origin) using peptide as substrate preincubated for 10 mins followed by substrate addition by microplate reader analysis
HCT-116 [24] = experiment: Antiproliferative activity against ATM-proficient human HCT-116 cells assessed as reduction in cell viability incubated for 3 days in presence of AZD-1390 by MTT assay; format: functional, cell-based; settings: HCT-116, 72 h
[25] = AUCt in Sprague-Dawley rat at 5 mg/kg, po and measured upto 24 hrs by LC-MS analysis; format: ADME, organism-based; design: time < 24 hrs, dose 5 mg/kg, route po; settings: in vivo
[26] = Cmax in Sprague-Dawley rat at 5 mg/kg, po and measured upto 24 hrs by LC-MS analysis; format: ADME, organism-based; design: time < 24 hrs, dose 5 mg/kg, route po; settings: in vivo
Cytochrome P450 2C9 = Cytochrome P450 2C9 (Homo sapiens, UniProt P11712); experiment: Inhibition of CYP2C9 in human liver microsomes using […] as substrate preincubated for 5 mins followed by NADPH addition and measured after 120 mins by LC-MS/MS analysis; format: ADME, Microsome
[27] = target: DNA-dependent protein kinase catalytic subunit (Homo sapiens, UniProt P78527); experiment: Inhibition of DNA-PK (unknown origin) using peptide as substrate preincubated for 10 mins followed by substrate addition by microplate reader analysis
in vitro [28] = settings: rat, liver microsomes

Sequence of Cytochrome P450 2C19 (P33261 whole entry): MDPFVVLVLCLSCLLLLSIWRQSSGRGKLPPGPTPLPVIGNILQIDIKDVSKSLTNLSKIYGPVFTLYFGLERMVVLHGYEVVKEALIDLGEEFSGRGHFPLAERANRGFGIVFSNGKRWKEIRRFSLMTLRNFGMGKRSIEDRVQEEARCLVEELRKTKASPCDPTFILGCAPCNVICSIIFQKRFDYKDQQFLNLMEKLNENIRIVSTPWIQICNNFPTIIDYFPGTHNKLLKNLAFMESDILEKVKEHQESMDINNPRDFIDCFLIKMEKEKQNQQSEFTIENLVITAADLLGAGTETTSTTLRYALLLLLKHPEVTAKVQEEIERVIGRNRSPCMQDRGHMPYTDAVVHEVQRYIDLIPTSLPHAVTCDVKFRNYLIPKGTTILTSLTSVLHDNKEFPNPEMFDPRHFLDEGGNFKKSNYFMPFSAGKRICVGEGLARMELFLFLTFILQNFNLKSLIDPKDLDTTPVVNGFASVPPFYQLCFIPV
Sequence of Phosphatidylinositol 4,5-bisphosphate 3-kinase catalytic subunit alpha isoform (P42336 whole entry, canonical isoform): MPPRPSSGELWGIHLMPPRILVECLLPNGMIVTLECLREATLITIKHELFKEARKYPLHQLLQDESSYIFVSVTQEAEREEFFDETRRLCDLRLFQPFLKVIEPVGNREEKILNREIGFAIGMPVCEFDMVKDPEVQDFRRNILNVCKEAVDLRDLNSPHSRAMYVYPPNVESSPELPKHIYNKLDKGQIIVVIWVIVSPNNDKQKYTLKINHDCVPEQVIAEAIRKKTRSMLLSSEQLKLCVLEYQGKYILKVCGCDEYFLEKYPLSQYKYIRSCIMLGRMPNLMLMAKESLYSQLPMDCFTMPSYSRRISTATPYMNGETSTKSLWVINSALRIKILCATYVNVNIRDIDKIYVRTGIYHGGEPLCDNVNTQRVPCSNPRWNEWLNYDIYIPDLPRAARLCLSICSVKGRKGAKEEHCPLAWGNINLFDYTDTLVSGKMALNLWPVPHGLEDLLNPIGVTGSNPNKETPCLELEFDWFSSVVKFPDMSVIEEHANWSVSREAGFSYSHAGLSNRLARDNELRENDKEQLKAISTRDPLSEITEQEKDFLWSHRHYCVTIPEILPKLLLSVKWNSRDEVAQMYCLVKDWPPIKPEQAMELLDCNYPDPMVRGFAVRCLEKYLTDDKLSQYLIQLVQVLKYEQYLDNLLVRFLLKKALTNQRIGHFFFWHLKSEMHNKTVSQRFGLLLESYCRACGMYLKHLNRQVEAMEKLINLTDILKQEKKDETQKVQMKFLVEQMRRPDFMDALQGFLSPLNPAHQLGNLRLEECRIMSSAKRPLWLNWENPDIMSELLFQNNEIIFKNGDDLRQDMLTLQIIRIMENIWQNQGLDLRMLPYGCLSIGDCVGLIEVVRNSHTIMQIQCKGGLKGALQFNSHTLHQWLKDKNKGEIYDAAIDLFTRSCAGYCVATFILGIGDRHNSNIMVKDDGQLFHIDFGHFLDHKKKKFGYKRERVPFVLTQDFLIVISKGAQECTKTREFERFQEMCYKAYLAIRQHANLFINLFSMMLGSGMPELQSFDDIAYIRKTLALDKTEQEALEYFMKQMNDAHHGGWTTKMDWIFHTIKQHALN
Sequence of Serine-protein kinase ATM (Q13315 whole entry): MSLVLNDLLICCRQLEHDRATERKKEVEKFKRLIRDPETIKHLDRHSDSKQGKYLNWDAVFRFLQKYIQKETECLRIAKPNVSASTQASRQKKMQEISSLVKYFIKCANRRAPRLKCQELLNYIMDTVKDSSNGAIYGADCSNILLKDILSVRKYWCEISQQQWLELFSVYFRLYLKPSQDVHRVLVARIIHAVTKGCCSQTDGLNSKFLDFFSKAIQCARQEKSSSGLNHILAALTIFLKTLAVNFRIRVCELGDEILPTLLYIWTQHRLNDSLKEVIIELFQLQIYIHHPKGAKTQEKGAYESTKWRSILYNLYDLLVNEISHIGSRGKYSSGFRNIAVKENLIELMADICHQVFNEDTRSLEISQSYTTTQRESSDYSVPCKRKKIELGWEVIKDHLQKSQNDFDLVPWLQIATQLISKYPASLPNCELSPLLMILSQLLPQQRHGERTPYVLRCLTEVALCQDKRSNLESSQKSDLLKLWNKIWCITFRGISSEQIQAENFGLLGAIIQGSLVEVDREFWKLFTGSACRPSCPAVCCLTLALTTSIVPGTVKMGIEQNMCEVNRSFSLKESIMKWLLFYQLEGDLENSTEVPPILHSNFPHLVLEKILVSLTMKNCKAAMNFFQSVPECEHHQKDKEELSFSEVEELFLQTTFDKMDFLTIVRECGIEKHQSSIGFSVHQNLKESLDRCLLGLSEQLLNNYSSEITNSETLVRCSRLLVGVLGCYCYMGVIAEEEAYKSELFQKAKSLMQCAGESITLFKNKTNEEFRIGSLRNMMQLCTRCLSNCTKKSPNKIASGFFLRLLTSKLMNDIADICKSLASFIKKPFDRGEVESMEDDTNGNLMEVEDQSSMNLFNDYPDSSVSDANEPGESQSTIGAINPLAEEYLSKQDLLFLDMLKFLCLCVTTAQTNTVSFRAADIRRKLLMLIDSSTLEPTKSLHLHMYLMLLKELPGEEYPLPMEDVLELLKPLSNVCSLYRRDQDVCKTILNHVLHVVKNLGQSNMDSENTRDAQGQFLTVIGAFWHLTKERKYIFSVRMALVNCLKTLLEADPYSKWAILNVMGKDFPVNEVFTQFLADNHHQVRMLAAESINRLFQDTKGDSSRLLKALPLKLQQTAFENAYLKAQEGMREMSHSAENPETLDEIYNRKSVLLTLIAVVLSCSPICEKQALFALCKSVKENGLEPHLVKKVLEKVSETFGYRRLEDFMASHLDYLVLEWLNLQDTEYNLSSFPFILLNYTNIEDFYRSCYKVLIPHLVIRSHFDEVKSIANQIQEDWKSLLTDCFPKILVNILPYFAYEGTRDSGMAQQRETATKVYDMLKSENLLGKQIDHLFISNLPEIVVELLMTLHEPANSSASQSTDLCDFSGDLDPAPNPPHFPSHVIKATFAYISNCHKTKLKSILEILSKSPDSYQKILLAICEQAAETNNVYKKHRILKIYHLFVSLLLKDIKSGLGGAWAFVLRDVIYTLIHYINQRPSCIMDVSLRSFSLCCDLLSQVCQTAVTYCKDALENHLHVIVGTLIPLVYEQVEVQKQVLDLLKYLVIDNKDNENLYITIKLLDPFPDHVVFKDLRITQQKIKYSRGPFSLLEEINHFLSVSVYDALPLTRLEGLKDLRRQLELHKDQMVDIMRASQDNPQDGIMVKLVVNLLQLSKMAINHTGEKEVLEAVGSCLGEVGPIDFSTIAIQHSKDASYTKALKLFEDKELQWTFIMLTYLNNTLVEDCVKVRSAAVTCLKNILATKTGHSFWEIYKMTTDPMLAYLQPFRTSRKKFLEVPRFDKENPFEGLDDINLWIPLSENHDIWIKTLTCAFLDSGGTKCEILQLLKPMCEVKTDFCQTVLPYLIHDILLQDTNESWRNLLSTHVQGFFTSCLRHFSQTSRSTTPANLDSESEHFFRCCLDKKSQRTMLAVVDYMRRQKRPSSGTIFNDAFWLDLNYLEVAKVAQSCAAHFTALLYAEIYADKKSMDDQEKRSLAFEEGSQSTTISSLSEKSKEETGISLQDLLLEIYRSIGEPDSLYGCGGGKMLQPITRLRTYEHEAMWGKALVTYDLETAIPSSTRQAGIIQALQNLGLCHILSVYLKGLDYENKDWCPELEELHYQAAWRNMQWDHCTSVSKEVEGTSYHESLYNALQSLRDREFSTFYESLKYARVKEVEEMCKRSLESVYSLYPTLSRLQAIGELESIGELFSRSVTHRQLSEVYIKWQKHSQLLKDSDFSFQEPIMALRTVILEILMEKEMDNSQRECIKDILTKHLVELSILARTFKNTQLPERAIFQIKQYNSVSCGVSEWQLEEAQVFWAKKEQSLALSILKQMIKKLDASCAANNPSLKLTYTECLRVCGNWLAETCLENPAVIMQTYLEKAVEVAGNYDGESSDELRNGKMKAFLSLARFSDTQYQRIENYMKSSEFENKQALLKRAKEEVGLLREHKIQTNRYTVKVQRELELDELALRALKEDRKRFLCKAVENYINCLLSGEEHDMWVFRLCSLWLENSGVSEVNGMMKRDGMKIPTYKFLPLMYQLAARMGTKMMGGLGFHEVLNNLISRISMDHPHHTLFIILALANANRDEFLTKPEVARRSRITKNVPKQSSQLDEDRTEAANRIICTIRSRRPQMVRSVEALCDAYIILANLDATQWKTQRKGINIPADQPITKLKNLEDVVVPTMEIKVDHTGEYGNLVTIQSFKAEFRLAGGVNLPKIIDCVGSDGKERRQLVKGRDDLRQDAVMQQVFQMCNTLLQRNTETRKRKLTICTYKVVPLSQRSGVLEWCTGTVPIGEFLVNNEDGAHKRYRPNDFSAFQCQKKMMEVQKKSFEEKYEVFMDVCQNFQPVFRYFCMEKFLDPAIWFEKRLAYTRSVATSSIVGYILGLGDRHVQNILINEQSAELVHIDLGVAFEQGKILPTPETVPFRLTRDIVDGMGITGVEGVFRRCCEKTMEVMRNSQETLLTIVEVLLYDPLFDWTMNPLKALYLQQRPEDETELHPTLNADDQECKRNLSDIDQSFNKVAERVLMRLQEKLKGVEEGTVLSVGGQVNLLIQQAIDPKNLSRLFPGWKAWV
Sequence of Cytochrome P450 2C9 (P11712 whole entry): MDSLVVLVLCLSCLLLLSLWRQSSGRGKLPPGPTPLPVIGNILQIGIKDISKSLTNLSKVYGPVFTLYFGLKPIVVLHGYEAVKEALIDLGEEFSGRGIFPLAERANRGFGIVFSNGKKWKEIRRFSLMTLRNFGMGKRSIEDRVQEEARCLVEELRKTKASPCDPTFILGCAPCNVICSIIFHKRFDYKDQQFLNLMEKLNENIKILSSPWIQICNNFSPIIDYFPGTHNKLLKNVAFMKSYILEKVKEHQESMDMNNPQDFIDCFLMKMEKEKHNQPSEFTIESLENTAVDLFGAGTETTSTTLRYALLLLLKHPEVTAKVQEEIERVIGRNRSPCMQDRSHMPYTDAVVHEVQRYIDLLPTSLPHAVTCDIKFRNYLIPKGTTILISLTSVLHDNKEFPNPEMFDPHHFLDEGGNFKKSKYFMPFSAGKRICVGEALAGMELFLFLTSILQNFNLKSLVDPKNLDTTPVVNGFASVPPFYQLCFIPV

IC50 (HT-29 [1])	IC50 [2]	IC50 (A549 [3])	solubility [4]	IC50 (HT-29 [5])	fraction unbound at 6 h, 1 µM [6]	IC50 (HCT-116 [7])	IC50 (Cytochrome P450 1A2)	IC50 (A549 [8])	IC50 (SW-620)	IC50 (MCF7 [9])	MRT inf [10]	IC50 (MDA-MB-231)	IC50 (MCF7 [11])	IC50 [13]	Vd [14]	half-life at 1 h, 1 µM (in vitro [15])	IC50 (LoVo [16])	IC50 (Cytochrome P450 2C19)	SMILES	inhibition (LoVo [12])	further results
19 nM	18 nM	302 nM	84.3 µM (≈ 46 µg/mL)	197 nM	0.003	13 nM	> 10000 nM	114 nM	95 nM	328 nM	4.26 h	1070 nM	873 nM	1000 nM	1.24 L/kg	0.0567 h	40 nM	1000 nM	C[C@@H]1COCCN1c1nc(-c2cccc3[nH]ccc23)nc2c1CN(C(=O)c1cccc(S(C)(=O)=O)c1)C2(C)C	Dose-Dependent Effect	AUC(0-t) at 24 h [17]: 1160 ng·h/mL; IC50 [18]: 3 nM; Tmax [19]: 2 h; IC50 (A549 [20]): 280 nM; clearance [21]: 14.2 mL/min/kg; MRT last at 24 h [22]: 3.6 h; IC50 [23]: 1000 nM; IC50 (HCT-116 [24]): 1 nM; AUC(0-t) at 24 h [25]: 1620 ng·h/mL; Cmax [26]: 282 ng/mL; IC50 (Cytochrome P450 2C9): 10000 nM; IC50 [27]: 662 nM; CLint scaled at 1 h, 1 µM (in vitro [28]): 119 mL/min/kg
45 nM	33 nM	741 nM	47.6 µM (≈ 24.4 µg/mL)	421 nM	0.001	67 nM	> 10000 nM	337 nM	145 nM	347 nM	4.21 h	2570 nM	730 nM	516 nM	0.785 L/kg	0.435 h	78 nM	1000 nM	C[C@@H]1COCCN1c1nc(-c2cccc3[nH]ccc23)nc2c1CN(C(=O)c1ccc3c(c1)OCO3)C2(C)C	Dose-Dependent Effect	AUC(0-t) at 24 h [17]: 2740 ng·h/mL; IC50 [18]: 5 nM; Tmax [19]: 1.67 h; IC50 (A549 [20]): 439 nM; clearance [21]: 5.97 mL/min/kg; MRT last at 24 h [22]: 4.36 h; IC50 [23]: 1000 nM; IC50 (HCT-116 [24]): 84 nM; AUC(0-t) at 24 h [25]: 5700 ng·h/mL; Cmax [26]: 1290 ng/mL; IC50 (Cytochrome P450 2C9): 10000 nM; IC50 [27]: 1000 nM; CLint scaled at 1 h, 1 µM (in vitro [28]): 63.6 mL/min/kg

Reference: ChEMBL document CHEMBL5331073, “Discovery of novel 7,7-dimethyl-6,7-dihydro-5H-pyrrolo[3,4-d]pyrimidines as ATR inhibitors based on structure-based drug design” (Eur J Med Chem, 2023)
